In PubChem BioAssay (NCI):
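Growth conditions: 96-well plates. Treatment: test compound, 48 hours, 5 concentrations. Analysis: linear interpolation between bracketing concentrations; unreached endpoints set to highest concentration. Abbreviation: GI50, concentration required for 50% inhibition of growth. The concentration for full growth arrest is given as TGI.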

Key:
Test in all cases: NCI tumour cell line growth inhibition, 48 h
[1] = test system: U251 CNS
[2] = test system: OVCAR-3 ovarian
[3] = test system: SF-295 CNS
[4] = test system: NCI-H460 lung
[5] = test system: SN12C renal
[6] = test system: 786-0 renal
[7] = test system: HT29 colon
[8] = test system: RXF 393 renal
[9] = test system: A498 renal
[10] = test system: SW-620 colon
[11] = test system: RPMI-8226 leukemia
[12] = test system: LOX IMVI melanoma
[13] = test system: HOP-92 NSCLC
[14] = test system: NCI-H23 lung
[15] = test system: EKVX NSCLC
[16] = test system: OVCAR-8 ovarian
[17] = test system: HS 578T breast
[18] = test system: NCI-H522 lung
[19] = test system: MDA-MB-435
[20] = test system: PC-3 prostate
[21] = test system: DU-145 prostate
[22] = test system: MDA-MB-231 breast
[23] = test system: OVCAR-5 ovarian
[24] = test system: MCF7 breast
[25] = test system: SK-MEL-2 melanoma
[26] = test system: HL-60(TB) leukemia
[27] = test system: MDA-MB-468 breast
[28] = test system: MALME-3M melanoma
[29] = test system: UACC-257 melanoma
[30] = test system: SK-MEL-5 melanoma
[31] = test system: HOP-62 NSCLC
[32] = test system: SK-OV-3 ovarian
[33] = test system: HCT-15 colon
[34] = test system: SF-539 CNS
[35] = test system: TK-10 renal
[36] = test system: SK-MEL-28 melanoma
[37] = test system: SNB-19 CNS
[38] = test system: A549 NSCLC
[39] = test system: NCI-H226 lung
[40] = test system: OVCAR-4 ovarian
[41] = test system: SNB-75 CNS
[42] = test system: HCC-2998 colon
[43] = test system: ACHN renal
[44] = test system: UACC-62 melanoma
[45] = test system: IGROV1 ovarian
[46] = test system: M14 melanoma
[47] = test system: CCRF-CEM leukemia
[48] = test system: CAKI-1 renal
[49] = test system: BT-549 breast
[50] = test system: HCT-116 colon
[51] = test system: KM12 colon
[52] = test system: K-562 leukemia
[53] = test system: MOLT-4 leukemia
[54] = test system: T-47D breast
[55] = test system: UO-31 renal
[56] = test system: COLO 205 colon
[57] = test system: SR leukemia
[58] = test system: SF-268 CNS

O=C1Nc2ccc(Cl)cc2/C1=C/c1cccc(OCc2ccccc2)c1
GI50 [1]: 14.8 µM
TGI [1]: 55.4 µM
GI50 [2]: 12.4 µM
TGI [2]: 31.7 µM
GI50 [3]: 37 µM
TGI [3]: > 100 µM
GI50 [4]: 14 µM
TGI [4]: 37.9 µM
GI50 [5]: 20.5 µM
TGI [5]: 88.8 µM
GI50 [6]: 14.1 µM
TGI [6]: 32.6 µM
GI50 [7]: 37.8 µM
TGI [7]: > 100 µM
GI50 [8]: 18.4 µM
TGI [8]: 95.9 µM
GI50 [9]: 38 µM
TGI [9]: > 100 µM
GI50 [10]: 19.9 µM
TGI [10]: 75.9 µM
GI50 [11]: 7.46 µM
TGI [11]: 36.7 µM
GI50 [12]: 10.2 µM
TGI [12]: 40.4 µM
GI50 [13]: 2.16 µM
TGI [13]: 13.4 µM
GI50 [14]: 22 µM
TGI [14]: > 100 µM
GI50 [15]: 20.5 µM
TGI [15]: > 100 µM
GI50 [16]: 20.2 µM
TGI [16]: 61.8 µM
GI50 [17]: 16 µM
TGI [17]: 72.9 µM
GI50 [18]: 24 µM
TGI [18]: > 100 µM
GI50 [19]: 24 µM
TGI [19]: 98.8 µM
GI50 [20]: 14.9 µM
TGI [20]: 82 µM
GI50 [21]: 17 µM
TGI [21]: 45.3 µM
GI50 [22]: 15.3 µM
TGI [22]: 37.9 µM
GI50 [23]: 27.5 µM
TGI [23]: > 100 µM
GI50 [24]: 3.9 µM
TGI [24]: 75.1 µM
GI50 [25]: 31.2 µM
TGI [25]: > 100 µM
GI50 [26]: 13.3 µM
TGI [26]: 57.8 µM
GI50 [27]: 6.52 µM
TGI [27]: 67.5 µM
GI50 [28]: 21.1 µM
TGI [28]: 64.7 µM
GI50 [29]: 53.8 µM
TGI [29]: > 100 µM
GI50 [30]: 28.1 µM
TGI [30]: > 100 µM
GI50 [31]: 25.6 µM
TGI [31]: 79.8 µM
GI50 [32]: 59 µM
TGI [32]: > 100 µM
GI50 [33]: 9.4 µM
TGI [33]: 94.6 µM
GI50 [34]: 18.5 µM
TGI [34]: 48.6 µM
GI50 [35]: 56.1 µM
TGI [35]: > 100 µM
GI50 [36]: 16.5 µM
TGI [36]: 44.3 µM
GI50 [37]: 17.9 µM
TGI [37]: 58.8 µM
GI50 [38]: 18.3 µM
TGI [38]: > 100 µM
GI50 [39]: 14.1 µM
TGI [39]: 84.6 µM
GI50 [40]: 11.8 µM
TGI [40]: 63.2 µM
GI50 [41]: 16.7 µM
TGI [41]: 56 µM
GI50 [42]: 41.2 µM
TGI [42]: > 100 µM
GI50 [43]: 15 µM
TGI [43]: 37.3 µM
GI50 [44]: 8.87 µM
TGI [44]: 35.4 µM
GI50 [45]: 12.3 µM
TGI [45]: 61.2 µM
GI50 [46]: 19.5 µM
TGI [46]: > 100 µM
GI50 [47]: 11.2 µM
TGI [47]: 32.1 µM
GI50 [48]: 10.8 µM
TGI [48]: 32 µM
GI50 [49]: 14.3 µM
TGI [49]: 66.1 µM
GI50 [50]: 10.7 µM
TGI [50]: > 100 µM
GI50 [51]: 20.1 µM
TGI [51]: > 100 µM
GI50 [52]: 11 µM
TGI [52]: 37.8 µM
GI50 [53]: 4.96 µM
TGI [53]: 23.6 µM
GI50 [54]: 16.1 µM
TGI [54]: > 100 µM
GI50 [55]: 7.91 µM
TGI [55]: > 100 µM
GI50 [56]: 37.4 µM
TGI [56]: > 100 µM
GI50 [57]: 5.66 µM
TGI [57]: 21.8 µM
GI50 [58]: 14.6 µM
TGI [58]: 49.4 µM
